Results as given in patent publication US20140249095A1, “Method for Inhibiting Spinocerebellar Ataxia” (National Normal University, priority 2013, published 2014).

Key:
[1] = test system: ATXN3/Q75 aggregation in 293 ATXN3/Q75-GFP cells; test: ATXN3/Q75 aggregation assay on 293 cell model; format: cell-based, human; conditions: for ATXN3/Q75 aggregation as compared to untreated cells: 293 ATXN3/Q75-GFP cells, doxycycline and oxaliplatin 6 days; for IC50 cytotoxicity/effective dose ratio: effective dose = reduced the ATXN3/Q75 aggregation to 85% or lower
Method: (§1) The cloned pcDNA5/FRT/TO-ATXN3/Q14 and Q75 plasmids were used to generate the isogenic ATXN3/Q14˜75 cell lines by targeting insertion into Flp-In™-293 cells. These cell lines were grown in medium containing 5 μg/mL blasticidin and 100 μg/mL hygromycin (InvivoGen). In addition, human SH-SYSY-derived Flp-In host cell line was constructed as described, and the SH-SYSY host cells were used to generate isogenic ATXN3/Q14˜75 lines and maintained as described above. ATXN3/Q75 Aggregation Assay
Then, doxycycline (10 μg/mL, BD) was added to the medium in each well to induce ATXN3/Q75-GFP expression for 6 days.
In the present example, the influences of the P. lactiflora extract and paeoniflorin in the ATXN3/Q75-GFP cells were respectively examined.

in vitro [2] = conditions: human
Method: (§2) Cells were cultivated at 37° C. incubator containing 5% CO2 and cell proliferation was measured based upon the reduction of the tetrazolium salt, 3,[4,5-dimethylthiazol-2-yl]-2,5-diphenyl-tetrazolium bromide (MTT). Cells were plated into 48-well (5×10^4/well) dishes, grown for 20 hours and treated with different concentrations of the P. lactiflora extract (5˜30 mg/mL) or pure compound (100 nM˜1 mM). After one day, 20 μL MTT (5 mg/mL in PBS, Sigma) was added to cells and incubated for 2 hours. The absorbance of the purple formazan dye was measured at 570 nm by a Bio-Tek μQuant Universal Microplate Spectrophotometer.

in vitro [3] = conditions: human; remark: listed apart in the source
Method: as §2

[4] = test system: ATXN3/Q75 aggregation in SH-SY5Y ATXN3/Q75-GFP cells; test: ATXN3/Q75 aggregation assay on SH-SY5Y cell model; format: cell-based, human; conditions: paeoniflorin 100 nM; retinoic acid differentiated SH-SY5Y ATXN3/Q75-GFP cells, 6 days
Method: as §1

Method for HEK-293 cells: as §2
Method for SH-SY5Y cells: as §2

SMILES: O=C(CCCCCCC(=O)Nc1ccccc1)NO [SAHA, suberoylanilide hydroxamic acid, reference compound]
- ATXN3/Q75 aggregation as compared to untreated cells ([1]; at 100 nM): 85%

SMILES: C[C@]12C[C@@H](O)[C@@H]3C[C@@]1(O[C@@H]1O[C@H](CO)[C@@H](O)[C@H](O)[C@H]1O)[C@@]3(COC(=O)c1ccccc1)C(=O)O2 [albiflorin]
- IC50 (SH-SY5Y cells): > 1000 µM
- ATXN3/Q75 aggregation as compared to untreated cells ([1]; at 5 μM): 78%
- IC50 cytotoxicity/effective dose ratio [1]: > 200
- IC50 (HEK-293 cells): > 1000 µM

SMILES: C[C@@]12C[C@@]3(O)O[C@@H](O1)[C@]1(COC(=O)c4ccccc4)[C@H]3C[C@@]12O[C@@H]1O[C@H](CO)[C@@H](O)[C@H](O)[C@H]1O [paeoniflorin]
- IC50 at 24 h (in vitro [2]): > 1000 µM
- ATXN3/Q75 aggregation as compared to untreated cells ([1]; at 100 nM): 73%
- IC50 cytotoxicity/effective dose ratio [1]: > 10000
- IC50 at 24 h (in vitro [3]): > 1000 µM
- aggregation reduction in ATXN3/Q75 expressed neuronal cells [4]: 21%
